Where “and” joins values, the source holds several entries; their conditions need not be identical. Equal values may be shown once.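 Following 48 hours of exposure in 96-well plates, responses at five concentrations were used to interpolate endpoints linearly. The concentration for 50% growth inhibition is given as GI50. Definition used: TGI = concentration required for complete inhibition of growth.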
What was measured:
Test in all cases: NCI anticancer screen, dose series, 48 h
NCI-H460 lung = test system: NCI-H460 lung
HCT-15 colon = test system: HCT-15 colon
COLO 205 colon = test system: COLO 205 colon
UACC-62 melanoma = test system: UACC-62 melanoma
SK-OV-3 ovarian = test system: SK-OV-3 ovarian
HCT-116 colon = test system: HCT-116 colon
A498 renal = test system: A498 renal
HS 578T breast = test system: HS 578T breast
SK-MEL-2 melanoma = test system: SK-MEL-2 melanoma
LOX IMVI melanoma = test system: LOX IMVI melanoma

Row | Structure (SMILES) | TGI (NCI-H460 lung) | TGI (HCT-15 colon) | TGI (COLO 205 colon) | TGI (UACC-62 melanoma) | TGI (SK-OV-3 ovarian) | TGI (HCT-116 colon) | TGI (A498 renal) | TGI (HS 578T breast) [µM] | GI50 (NCI-H460 lung) [µM] | GI50 (SK-MEL-2 melanoma) | TGI (SK-MEL-2 melanoma) | GI50 (HCT-15 colon) | GI50 (COLO 205 colon) [µM] | GI50 (LOX IMVI melanoma) | TGI (LOX IMVI melanoma) | GI50 (UACC-62 melanoma) [µM] | GI50 (SK-OV-3 ovarian) [µM] | GI50 (HCT-116 colon) | GI50 (A498 renal) | GI50 (HS 578T breast)
1 | CC1(C)C(C#N)C1C1=C(N2CCOCC2)[C@]2(C)C(OC(=O)c3ccccc3)CC[C@@H]2C1 (stereo not given in full) | > 100 µM | > 100 µM | > 100 µM | > 100 µM | > 100 µM | > 100 µM | > 100 µM | > 100 |  |  |  |  |  |  |  |  |  |  |  | 
2 | N#Cc1c(N)nc(N2CCOCC2)c(C#N)c1-c1ccncc1 | > 100 µM | > 100 µM | > 100 µM | > 100 µM | > 100 µM | > 100 µM | 66.1 µM | > 100 | 98.1 | > 100 µM | > 100 µM | > 100 µM | > 100 | 80.1 µM | > 100 µM | 27 | 37 | > 100 µM | 18.6 µM | 38.3 µM
3 | COc1cccc(C2CC(C)(O)Oc3cc4c(cc32)OCO4)c1O (stereo not given) | > 92.7 µM | > 72.5 µM | 41.3 µM | > 75.9 µM | > 100 µM | > 69.4 µM | > 100 µM | 51.6 |  |  | > 80.4 µM |  |  |  | > 100 µM |  |  |  |  | 
4 | N#Cc1c(NC(=O)NCc2ccccc2)sc2c1CCCCC2 | > 31.7 µM | > 100 µM | 3.74 µM | > 40.2 µM | > 100 µM | > 100 µM | 1.1 µM | 9.33 | 0.352 | 2.27 µM | > 100 µM | 0.417 µM | 0.521 | 0.573 µM | > 100 µM | 0.533 | 0.799 | 0.528 µM | 0.218 µM | 0.314 µM
5 | COc1cccc(CC(C)=C(c2ccc(OCCN(C)C)cc2)c2ccc(OCCN(C)C)cc2)c1 | 7.38 µM | 3.6 µM | 1.31 µM | 1.5 µM | 10.4 µM | 1.5 µM | 9.63 µM | 8.9 | 2.83 | 5.19 µM | 10.9 µM | 0.974 µM | 0.626 | 0.604 µM | 1.16 µM | 0.689 | 5.66 | 0.644 µM | 4.79 µM | 3.58 µM
6 | C=C(Cl)C(=CCl)CCC(Br)C(C)(C)Cl (mixture of isomers) | > 10 µM | > 10 µM | > 10 µM | > 10 µM | > 10 µM | > 10 µM | > 10 µM | > 10 |  |  | > 10 µM |  |  |  | > 10 µM |  |  |  |  | 
7 | O=C(Nc1ccc(Nc2ccncc2)cc1)c1ccc([N+](=O)[O-])cc1 | 16.5 µM | > 40.6 µM | 3.73 µM | 9.64 µM | 19.8 µM | 17 µM | 9 µM | 25.9 | 4.24 | 9.64 µM | 28.9 µM | 4.95 µM | 1.9 | 3.72 µM | 14.7 µM | 2.65 | 5.85 | 2.93 µM | 2.43 µM | 5.8 µM
8 | O=[N+]([O-])c1ccc2[nH]c(=S)[nH]c(=S)c2c1 | > 100 µM | > 100 µM | > 100 µM | > 100 µM | > 100 µM | > 100 µM | > 100 µM | > 100 |  |  | > 100 µM |  |  |  | > 100 µM |  |  |  |  | 
9 | CSC1=Nc2c(c(C)c(C)n2COC(CO)CO)C2=NC(=O)C(C)N12 (stereo not given) | > 100 µM | > 100 µM | > 100 µM | > 100 µM | > 100 µM | > 100 µM | > 100 µM | > 100 | > 100 | > 100 µM | > 100 µM | > 100 µM | > 100 | > 100 µM | > 100 µM | > 100 | > 100 | > 100 µM | > 100 µM | > 100 µM
10 | COc1cccc2c1C(=O)c1c(O)c3c(c(O)c1C2=O)C[C@@](O)(C(=O)CO)C[C@@H]3OC1CC(N)CC(C)O1 (stereo not given in full) | 0.421 µM and 0.192 µM | 3.57 µM and 2.53 µM | 0.389 µM and 0.351 µM | 0.148 µM and 0.0691 µM | 0.94 µM and 3.52 µM | 0.79 µM and 0.33 µM | 0.366 µM and 0.165 µM |  |  | 0.125 µM and 0.0769 µM | 0.315 µM and 0.22 µM | 0.183 µM and 0.125 µM | 0.0823 | 0.0295 µM and 0.0231 µM | 0.262 µM and 0.12 µM | 0.0308 | 0.0837 | 0.0155 µM and 0.0431 µM | 0.111 µM and 0.0375 µM | 0.0504 µM and 0.119 µM
11 | C/C=C/C(CC(O)(C(F)(F)F)C(F)(F)F)=N/NC(N)=S | > 10 µM | > 10 µM | > 10 µM | > 10 µM | > 10 µM | > 10 µM | > 10 µM | > 10 |  |  | > 10 µM |  |  |  | > 10 µM |  |  |  |  | 
12 | COc1ccc(/C=C\[N+](=O)[O-])cc1OC | 21.2 µM | 6.45 µM | 18 µM | 12.3 µM | 26.2 µM | 2.85 µM |  | 24.7 | 4.99 | 2.64 µM | 7.39 µM | 2.19 µM | 5.1 | 1.66 µM | 3.45 µM | 2.62 | 13.4 | 1.37 µM |  | 2.92 µM
13 | CC(=O)CCn1c(=S)sc2ccccc21 | > 100 µM | > 100 µM | > 100 µM | > 100 µM | > 100 µM | > 100 µM |  | > 100 |  |  | > 100 µM |  |  |  | > 100 µM |  |  |  |  | 
14 | CO/N=C(\C(=O)OC(=NC1CCCCC1)NC1CCCCC1)c1csc(NC(c2ccccc2)(c2ccccc2)c2ccccc2)n1 | > 10 µM | > 10 µM | > 10 µM |  | > 10 µM | > 10 µM | > 10 µM | > 10 |  |  | > 10 µM |  |  |  | > 10 µM |  |  |  |  | 
15 | CCOC(=O)C1=CN(C)C=C(C(=O)OCC)C1c1cc(Br)c(OCC)c(OC)c1 | > 100 µM | > 100 µM | > 100 µM | > 100 µM | > 100 µM | > 100 µM | 94.9 µM | > 100 | 43.5 |  |  | > 100 µM | 68.7 | > 100 µM | > 100 µM | 69.4 | > 100 | 25.9 µM | 4.99 µM | 32.6 µM

Source: PubChem BioAssay (NCI)
